Reference: PubChem BioAssay (NCI)
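The compound was tested at five concentrations on cells cultured in 96-well plates, with a 48-hour exposure period. Here, GI50 denotes the concentration required for 50% inhibition of growth. TGI: total growth inhibition.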

Columns and labels:
Experiment in all cases: DTP human tumour cell line panel, 48 h
[1] = system: 786-0 renal
[2] = system: A498 renal
[3] = system: A549 NSCLC
[4] = system: ACHN renal
[5] = system: BT-549 breast
[6] = system: CAKI-1 renal
[7] = system: CCRF-CEM leukemia
[8] = system: COLO 205 colon
[9] = system: DU-145 prostate
[10] = system: EKVX NSCLC
[11] = system: HCC-2998 colon
[12] = system: HCT-116 colon
[13] = system: HCT-15 colon
[14] = system: HL-60(TB) leukemia
[15] = system: HOP-62 NSCLC
[16] = system: HOP-92 NSCLC
[17] = system: HS 578T breast
[18] = system: HT29 colon
[19] = system: IGROV1 ovarian
[20] = system: K-562 leukemia
[21] = system: KM12 colon
[22] = system: LOX IMVI melanoma
[23] = system: M14 melanoma
[24] = system: MALME-3M melanoma
[25] = system: MCF7 breast
[26] = system: MDA-MB-231 breast
[27] = system: MDA-MB-435
[28] = system: MOLT-4 leukemia
[29] = system: NCI-H226 lung
[30] = system: NCI-H23 lung
[31] = system: NCI-H460 lung
[32] = system: NCI-H522 lung
[33] = system: NCI/ADR-RES ovarian
[34] = system: OVCAR-3 ovarian
[35] = system: OVCAR-4 ovarian
[36] = system: OVCAR-5 ovarian
[37] = system: OVCAR-8 ovarian
[38] = system: PC-3 prostate
[39] = system: RPMI-8226 leukemia
[40] = system: SF-268 CNS
[41] = system: SF-295 CNS
[42] = system: SF-539 CNS
[43] = system: SK-MEL-2 melanoma
[44] = system: SK-MEL-28 melanoma
[45] = system: SK-MEL-5 melanoma
[46] = system: SK-OV-3 ovarian
[47] = system: SN12C renal
[48] = system: SNB-19 CNS
[49] = system: SNB-75 CNS
[50] = system: SR leukemia
[51] = system: SW-620 colon
[52] = system: T-47D breast
[53] = system: TK-10 renal
[54] = system: U251 CNS
[55] = system: UACC-257 melanoma
[56] = system: UACC-62 melanoma
[57] = system: UO-31 renal

C/C(=C(\c1ccc(O)cc1)c1ccc(OCCN2CCCCCC2)cc1)c1ccc(Cl)cc1
GI50 [1]: 2.15 µM
TGI [1]: 8.4 µM
GI50 [2]: 8.32 µM
TGI [2]: 14.9 µM
GI50 [3]: 6.27 µM
TGI [3]: 18.4 µM
GI50 [4]: 5.26 µM
TGI [4]: 10.8 µM
GI50 [5]: 6.12 µM
TGI [5]: 13 µM
GI50 [6]: 5.39 µM
TGI [6]: 11 µM
GI50 [7]: 10.8 µM
TGI [7]: 45.8 µM
GI50 [8]: 1.21 µM
TGI [8]: 2.99 µM
GI50 [9]: 7.05 µM
TGI [9]: 13.2 µM
GI50 [10]: 6.67 µM
TGI [10]: 12.8 µM
GI50 [11]: 2.43 µM
TGI [11]: 8.05 µM
GI50 [12]: 2.21 µM
TGI [12]: 9.11 µM
GI50 [13]: 1.26 µM
TGI [13]: 3.95 µM
GI50 [14]: 5.98 µM
TGI [14]: 14.3 µM
GI50 [15]: 7.03 µM
TGI [15]: 15.7 µM
GI50 [16]: 2.07 µM
TGI [16]: 9.62 µM
GI50 [17]: 5.06 µM
TGI [17]: 14.1 µM
GI50 [18]: 1.26 µM
TGI [18]: 4.59 µM
GI50 [19]: 5.79 µM
TGI [19]: 11.9 µM
GI50 [20]: 1.32 µM
TGI [20]: 6.03 µM
GI50 [21]: 3.37 µM
TGI [21]: 9.28 µM
GI50 [22]: 1.66 µM
TGI [22]: 6.55 µM
GI50 [23]: 1.6 µM
TGI [23]: 6.17 µM
GI50 [24]: 4.52 µM
TGI [24]: 9.89 µM
GI50 [25]: 0.0385 µM
TGI [25]: 3.81 µM
GI50 [26]: 7.02 µM
TGI [26]: 13.3 µM
GI50 [27]: 5.36 µM
TGI [27]: 11.1 µM
GI50 [28]: 1.69 µM
TGI [28]: 7.25 µM
GI50 [29]: 5.39 µM
TGI [29]: 12.2 µM
GI50 [30]: 5.52 µM
TGI [30]: 11.3 µM
GI50 [31]: 2.2 µM
TGI [31]: 7.27 µM
GI50 [32]: 7.43 µM
TGI [32]: 15 µM
GI50 [33]: 5.57 µM
TGI [33]: 11.5 µM
GI50 [34]: 6.11 µM
TGI [34]: 12.1 µM
GI50 [35]: 4.83 µM
TGI [35]: 10.6 µM
GI50 [36]: 5.78 µM
TGI [36]: 11.5 µM
GI50 [37]: 6.94 µM
TGI [37]: 13.7 µM
GI50 [38]: 2.8 µM
TGI [38]: 11.1 µM
GI50 [39]: 1.86 µM
TGI [39]: 31 µM
GI50 [40]: 5.8 µM
TGI [40]: 12.7 µM
GI50 [41]: 4.79 µM
TGI [41]: 10.3 µM
GI50 [42]: 4.67 µM
TGI [42]: 10 µM
GI50 [43]: 7.59 µM
TGI [43]: 14.5 µM
GI50 [44]: 4.94 µM
TGI [44]: 10.4 µM
GI50 [45]: 6.48 µM
TGI [45]: 12.5 µM
GI50 [46]: 7.74 µM
TGI [46]: 15 µM
GI50 [47]: 5.86 µM
TGI [47]: 11.9 µM
GI50 [48]: 6.27 µM
TGI [48]: 12.3 µM
GI50 [49]: 6.02 µM
TGI [49]: 12 µM
GI50 [50]: 1.28 µM
TGI [50]: 4.7 µM
GI50 [51]: 3.17 µM
TGI [51]: 9.28 µM
GI50 [52]: 1.19 µM
TGI [52]: 11.1 µM
GI50 [53]: 6.99 µM
TGI [53]: 14 µM
GI50 [54]: 3.28 µM
TGI [54]: 13.4 µM
GI50 [55]: 7.39 µM
TGI [55]: 14.8 µM
GI50 [56]: 6.35 µM
TGI [56]: 12.4 µM
GI50 [57]: 4.53 µM
TGI [57]: 9.88 µM
